# Assays:
# Type in all cases: in vivo
# [1] = tested on: Nilaparvata lugens; test: Nilaparvata lugens test (sprayed rice plants); conditions: mortality of hopper larvae on rice
# Procedure: (§1) Solvent: 7 parts by weight of dimethylformamide Emulsifier: 2 parts by weight of alkylaryl polyglycolether
# (§2) To produce a suitable preparation of active compound, 1 part by weight of active compound is mixed with the stated amount of solvent and emulsifier, and the concentrate is diluted with emulsifier-containing water to the desired concentration.
# Rice plants (Oryza sativa) are treated by being sprayed with the preparation of the active compound at the desired concentration and are infested with larvae of the Brown plant hopper (Nilaparvata lugens) as long as the leaves are still moist.
# After the specified period of time, the mortality in % is determined. 100% means that all the hopper larvae have been killed; 0% means that none of the hopper larvae have been killed.
# [2] = tested on: Phaedon cochleariae; test: Phaedon cochleariae test (sprayed cabbage leaves); conditions: mortality of beetle larvae on cabbage leaves
# Procedure: as §1, §2
# Cabbage leaves (Brassica oleracea) are treated by being sprayed with the preparation of the active compound at the desired concentration and are infested with larvae of the mustard beetle (Phaedon cochleariae) as long as the leaves are still moist.
# After the specified period of time, the mortality in % is determined. 100% means that all the beetle larvae have been killed; 0% means that none of the beetle larvae have been killed.
# [3] = tested on: Spodoptera frugiperda; test: Spodoptera frugiperda test (sprayed cabbage leaves); conditions: mortality of caterpillars on cabbage leaves
# Procedure: as §1, §2
# Cabbage leaves (Brassica oleracea) are treated by being sprayed into the preparation of the active compound of the desired concentration and are infested with larvae of the fall army worm (Spodoptera frugiperda) as long as the leaves are still moist.
# After the specified period of time, the mortality in % is determined. 100% means that all the caterpillars have been killed; 0% means that none of the caterpillars have been killed.
# [4] = tested on: Blumeria graminis f sp. hordei; test: Blumeria test (barley)/SAR 5d; conditions: 1000 ppm, inoculated 5 days after spraying, evaluated 7 days after inoculation
# Procedure: Solvent: 50 parts by weight of n,n-dimethylacetamid Emulsifier: 1 part by weight of alkylaryl polyglycol ether
# To produce a suitable preparation of active compound, 1 part by weight of active compound or active compound combination is mixed with the stated amounts of solvent and emulsifier, and the concentrate is diluted with water to the desired concentration.
# To test for systemic activated resistance, young plants are sprayed with the preparation of active compound or active compound combination at the stated rate of application. After the spray coating has dried on, the plants are placed in a greenhouse at a temperature of approximately 18° C. and a relative atmospheric humidity of approximately 80%.
# 5 days after spraying, the plants are dusted with spores of Blumeria graminis f sp. hordei. The plants then remain in a greenhouse at a temperature of approximately 18° C. and a relative atmospheric humidity of approximately 80% to promote the development of mildew pustules.
# The test is evaluated 7 days after the inoculation, 1. and 2. leaf separated. 0% means an efficacy with corresponds to that of the control while an efficacy of 100% means that no disease is observed.
smiles,measurement,setting,value
"CN/C(=N\[N+](=O)[O-])NCc1cnc(Cl)s1 [Clothianidin, clothianidin]",Efficacy in % after 3d,[1]; 0.032 ppm,55%
same,Efficacy in % after 3d,[1]; 0.8 ppm,70%
same,Efficacy in % after 6d,[2]; 0.16 ppm,0%
same,Efficacy in % after 6d,[3]; 8 ppm,25%
"CC[S+]([O-])c1c(C#N)nn(-c2c(Cl)cc(C(F)(F)F)cc2Cl)c1N (stereo not shown) [Ethiprole, ethiprole]",Efficacy in % after 3d,[1]; 0.16 ppm,0%
same,Efficacy in %,[4]; 1st leaf,22%
same,Efficacy in %,[4]; 2nd leaf,22%
"N#Cc1nn(-c2c(Cl)cc(C(F)(F)F)cc2Cl)c(N)c1[S+]([O-])C(F)(F)F (stereo not shown) [Fipronil, fipronil]",Efficacy in % after 3d,[1]; 0.032 ppm,0%
same,Efficacy in % after 3d,[1]; 20 ppm,70%
same,Efficacy in % after 6d,[2]; 0.032 ppm,0%
same,Efficacy in % after 6d,[3]; 8 ppm,65%
"N#Cc1ccccc1NC(=O)c1snc(Cl)c1Cl [Isotianil, 3,4-dichloro-N-(2-cyanophenyl)-5-isothiazolecarboxamide]",Efficacy in % after 6d,[3]; 200 ppm,0%
"N#C/N=C1\SCCN1Cc1ccc(Cl)nc1 [Thiacloprid, thiacloprid]",Efficacy in % after 3d,[1]; 4 ppm,0%

# — patent US20110160052A1, “Active Compound Combinations” (Bayer CropScience AG, priority 2007, published 2011)
